The record followed here is PubChem BioAssay AID1996.

Molecules are shown by their SMILES. Converted amounts (≈) assume the structure as drawn. A value given as a limit tells only on which side of the number the result lay.

As usually defined, the kinetic solubility is the concentration staying in solution when a stock, usually in DMSO, is diluted into the medium.

For the data set the following is noted: buffer; pH 7.4; 200.0 µM.
For `CCc1ccc(CN(C)C(=O)c2cc(=O)c3ccccc3o2)cc1`, the solubility (kinetic) turned out to be 0.035 mg/mL (≈ 109 µM).
As for `O=C(Nc1ccccc1)Nc1sccc1-c1nc2ccccc2s1`, the figure is 0.0038 mg/mL (≈ 10.8 µM); as for `O=C(c1cccc(Cl)c1)N1CCn2c1nc1ccccc12`, 0.0009 mg/mL (≈ 3.02 µM); as for `O=C(O)CCN1c2cccc3cccc(c23)S1(=O)=O`, over 0.0416 mg/mL.
In the case of `O=C1COc2ccccc2N1Cc1c(F)cccc1Cl` it was 0.02 mg/mL (≈ 68.6 µM); in that of `O=C(c1ccc(Cl)c(S(=O)(=O)N2CCOCC2)c1)N1CCCCCC1`, 0.0522 mg/mL (≈ 135 µM).
The molecule `COc1ccc(OC)c(NC(=O)CCn2ccnc2)c1` showed a kinetic solubility of 0.0389 mg/mL (≈ 141 µM).
In the case of `Clc1ccc(CN2CCN(c3ncccn3)CC2)cc1` it was 0.0296 mg/mL (≈ 102 µM); in that of `CC(=O)SCC[N+](C)(C)C.[Cl-]`, 0.0294 mg/mL; in that of `CCCc1ccc(C(=O)NC(=O)c2ccccc2O)cc1`, 0.0032 mg/mL (≈ 11.3 µM).
In the case of `Cc1cc2nc3c(=O)n(C4CCCCC4)c(=O)[nH]c3nc2cc1N` it was 0.0028 mg/mL (≈ 8.61 µM); in that of `CC(=O)c1sc2c(c1N)c(=O)[nH]c(=O)n2-c1ccccc1`, 0.0085 mg/mL (≈ 28.2 µM); in that of `COc1ccc(C(=O)O/N=C(\C)c2cnccn2)cc1`, 0.009 mg/mL (≈ 33.2 µM).
On to `CCC(C(=O)N/N=C(\C)c1cccnc1)c1ccccc1` (stereo not drawn), for which the solubility (kinetic) was over 0.0422 mg/mL.
The molecule `Cc1cccc(OCC(=O)OCC(=O)Nc2ccc(Cl)cn2)c1` showed a solubility (kinetic) of 0.0325 mg/mL (≈ 97.1 µM).
In the case of `CC(C)(C)c1ccc(OCC(=O)Nc2ccncc2)c(Br)c1` it was 0.0104 mg/mL (≈ 28.6 µM).
On to `CN1CCN/C1=C(/C(Cl)=C(Cl)Cl)[N+](=O)[O-]`, for which the solubility (kinetic) is over 0.0409 mg/mL.
In the case of `COc1ccc(NC(=O)CN2CCN(S(=O)(=O)N(C)C)CC2)cc1` it was over 0.0535 mg/mL; in that of `CCc1sc(-c2ccccc2)nc1C(=O)OC`, under 0.0005 mg/mL.
As for `O=C(COC(=O)CC1CC2CCC1C2)NCc1ccccc1` (stereo not drawn), the figure is over 0.0452 mg/mL; as for `COc1ccc(CCNC(=O)COC(=O)c2cc3ccccc3oc2=O)cc1OC`, over 0.0617 mg/mL.
As for `O=C(NCc1ccccn1)Nc1ccc(Cl)cc1`, the figure is 0.034 mg/mL (≈ 130 µM).
The molecule `Cc1ccc(OCC(=O)N2CCN(S(C)(=O)=O)CC2)cc1` returned a solubility (kinetic) of over 0.0469 mg/mL.
`O=C(NCCNC(=O)c1cnccn1)c1ccc(Cl)c(Cl)c1` gave a solubility (kinetic) of 0.0069 mg/mL (≈ 20.3 µM).
For the molecule `CCOC(=O)C1(Cc2ccccc2)CCCN(C(=O)C=C(C)C)C1` (stereo not drawn), the kinetic solubility is 0.0468 mg/mL (≈ 142 µM).
As for `CC1(C)CC2CC(C)(CN2C(=O)COC(=O)c2ccc(O)cc2O)C1` (stereo not drawn), the solubility (kinetic) was determined as 0.0234 mg/mL (≈ 67.4 µM).
As for `OCc1nc2ccccc2n1CCOc1ccccc1`, the figure is over 0.0402 mg/mL; as for `CC(=O)c1ccccc1OC(=O)c1ccc([N+](=O)[O-])o1`, over 0.0413 mg/mL; as for `COc1cc([N+](=O)[O-])ccc1Nc1nc(C)cc(C)n1.Cl`, 0.0005 mg/mL.
Molecule `COc1cc2[nH]c(C(=O)Nc3ccc(F)cc3)cc2c(OC)c1OC` had a kinetic solubility of 0.0024 mg/mL (≈ 6.97 µM).
Regarding `CCOC(=O)c1sc(=NC(=O)C2CC2)n(C)c1C`, the kinetic solubility is over 0.0402 mg/mL.
On to `O=C(c1ccncc1)c1ccc([N+](=O)[O-])cc1`, for which the solubility (kinetic) was over 0.0342 mg/mL.
As for `CCN(c1ccccc1)S(=O)(=O)c1ccc(OC)c(NC(=O)c2cc(F)c(F)c(F)c2F)c1`, the figure is 0.0007 mg/mL (≈ 1.45 µM); as for `CN(C)c1cc(-c2ccc(C#N)cc2)oc(=O)c1Cl`, 0.0027 mg/mL (≈ 9.83 µM).
`COc1ccc(C(=O)CC(=O)C(=O)Nc2cccc(C(C)=O)c2)cc1`: the kinetic solubility worked out at 0.0139 mg/mL (≈ 41 µM).
As for `CC(=O)Nc1ccc(NC(=O)CNC(=O)c2cccc(C)c2)cc1`, the figure is 0.0204 mg/mL (≈ 62.7 µM); as for `COc1ccccc1C(=O)COC(=O)c1ccc(N(C)C)cc1`, 0.0011 mg/mL (≈ 3.51 µM).
As to `COc1cc(CNCc2cccc3ccccc23)cc(OC)c1`, the solubility (kinetic) was determined as 0.0341 mg/mL (≈ 111 µM).
In turn, `O=C(OC(C(=O)c1c[nH]c2ccccc12)c1ccccc1)c1cnccn1` (stereo not drawn) registered a solubility (kinetic) of 0.047 mg/mL (≈ 132 µM).
In the case of `CCc1ccccc1NC(=O)C1CCCN(c2ncccn2)C1` (stereo not drawn) it was 0.0083 mg/mL (≈ 26.7 µM); in that of `CC1(C)CC(NC(=O)c2c(N)no[n+]2[O-])CC(C)(C)N1`, over 0.0425 mg/mL.
For `O=C(O)c1ccc(/C=N/N2CCN(c3ccccc3)CC2)cc1`, the solubility (kinetic) is over 0.0464 mg/mL.
In the case of `COc1ccc(-c2csc(Nc3ccccn3)n2)cc1OC` it was 0.0055 mg/mL (≈ 17.6 µM).
As for `CCn1c(CCC(=O)O)nc2cc(S(=O)(=O)N3CCOCC3)ccc21`, the figure is over 0.0551 mg/mL; as for `CCn1c(=O)c(C(=O)NCc2ccccc2)c(O)c2ccccc21`, under 0.0003 mg/mL; as for `Cc1ncc([N+](=O)[O-])n1CCN1C(=O)c2ccccc2C1=O`, 0.0443 mg/mL (≈ 148 µM).
In turn, `COc1ccc(-c2nc3c4ccccc4ccn3c2CN2CCCCC2)cc1` registered a solubility (kinetic) of 0.0017 mg/mL (≈ 4.58 µM).
As for `COc1ccc(S(=O)(=O)N2CCN(C(=O)c3cc4c(s3)CCC4)CC2)cc1`, the figure is 0.0077 mg/mL (≈ 18.9 µM); as for `O=c1c2ccccc2ncn1-c1ccc(Cl)cc1`, 0.0087 mg/mL (≈ 33.9 µM).
Regarding `Cc1ccc(C)c(NC(=O)CCOc2ccccc2)c1`, the solubility (kinetic) came out at 0.0037 mg/mL (≈ 13.7 µM). This solubility kinetic lies about 2.4-fold lower than the previous one.
In turn, `Cc1cc2nc3c(nc2cc1C)C(O)=C3O` showed a kinetic solubility of 0.0276 mg/mL (≈ 129 µM).
In the case of `CN(C)CCCNC(=S)Nc1ccc(Br)cc1` it was over 0.0474 mg/mL; in that of `CCc1ccc(NC(=O)COC(=O)c2cccs2)cc1`, 0.0028 mg/mL (≈ 9.68 µM).
In the case of `O=C(NCC(c1ccco1)N1CCOCC1)c1ccc(Cl)cc1` (stereo not drawn) it was over 0.0502 mg/mL.
In the case of `CC(=O)Nc1ccc(NC(=O)C2CC(=O)N(C(C)C)C2)cc1` (stereo not drawn) it was 0.0434 mg/mL (≈ 143 µM).
Turning to `CC(C)N1CCNCC1.Cl`, the solubility (kinetic) was found to be 0.0231 mg/mL.
In the case of `CC(C)n1c(C(F)(F)F)nc2cc(C(=O)N3CCOCC3)ccc21` it was over 0.0512 mg/mL; in that of `Cc1ccc(C(=O)ONC(=O)c2ccc(Cl)cc2)cc1[N+](=O)[O-]`, 0.0468 mg/mL (≈ 140 µM).
The molecule `CC1CCCCC1NC(=O)COC(=O)c1cccn1C` (stereo not drawn) displayed a kinetic solubility of over 0.0418 mg/mL.
The molecule `CCCN1CCC(NC(=O)C2CCN(C(C)=O)CC2)CC1` returned a solubility (kinetic) of over 0.0443 mg/mL.
Take `CCCS(=O)(=O)N1CCCC(C(=O)Oc2ccc(Cl)cc2)C1` (stereo not drawn): the solubility (kinetic) came out at 0.0015 mg/mL (≈ 4.34 µM).
The molecule `COC(=O)c1ccc(CSc2cc(C)c3ccccc3n2)o1` displayed a solubility (kinetic) of 0.0034 mg/mL (≈ 10.8 µM).
In the case of `COc1ccccc1NC(=O)NCC1(N(C)C)CCCCC1` it was over 0.0458 mg/mL.
With `O=C(c1c(F)cccc1F)N(Cc1cccs1)C1CCCC1`, the solubility (kinetic) came to 0.0303 mg/mL (≈ 94.3 µM).
As for `S=C(NCc1ccccc1)NCc1ccc(Cl)cc1`, the figure is 0.0023 mg/mL (≈ 7.91 µM); as for `N#CCSc1ccccc1NC(=O)CN1C(=O)C(=O)N(Cc2ccccc2)C1=O`, 0.0433 mg/mL (≈ 106 µM); as for `CC(NC(=O)Nc1ccc(F)cc1F)c1ccc2c(c1)OCO2` (stereo not drawn), 0.0024 mg/mL (≈ 7.49 µM).
In the case of `CC(=O)c1cccc(NC(=O)CCn2c(=O)oc3ccccc32)c1` it was 0.0197 mg/mL (≈ 60.7 µM); in that of `COc1ccc(Cl)cc1NC(=O)COC(=O)C1CCCCC1`, 0.0032 mg/mL (≈ 9.82 µM); in that of `COc1cccc(C(c2c(N)n(C)c(=O)n(C)c2=O)C(C)[N+](=O)[O-])c1` (stereo not drawn), over 0.0523 mg/mL.
In the case of `Cc1ccc(NC(=O)c2cc(=O)[nH]c3ccccc23)cc1C` it was under 0.0003 mg/mL; in that of `COc1ccc(C2=NOC(C(=O)NCc3cccnc3)C2)cc1` (stereo not drawn), over 0.0467 mg/mL.
Consider `C=CCC1(/C=N/O)CCOC(C)(C)C1` (stereo not drawn), for which the kinetic solubility was over 0.0296 mg/mL.
As for `N#Cc1c(SCC(=O)O)nc(N2CCOCC2)c2c1CCCC2`, the figure is over 0.05 mg/mL; as for `CCC(=O)Nc1ccc(C2C(=O)c3ccccc3C2=O)cc1`, over 0.044 mg/mL.
As for `Clc1c2c(nc3ccccc13)CCC2`, the figure is 0.004 mg/mL (≈ 19.6 µM); as for `CC(=O)c1ccc(Nc2nc(-c3cccnc3)cs2)cc1`, 0.0009 mg/mL (≈ 3.05 µM); as for `CN(C(=O)CSc1nc(-c2cccs2)nc2ccccc12)C1CCS(=O)(=O)C1` (stereo not drawn), 0.0025 mg/mL (≈ 5.77 µM).
In the case of `CC(=O)NCCc1ccc(C(=O)COC(=O)c2cccn2C)cc1` it was over 0.0493 mg/mL; in that of `O=C1C2C3C=CC(CC3)C2C(=O)N1c1ccc(Cl)cc1Cl` (stereo not drawn), 0.0097 mg/mL (≈ 30.1 µM).
`Cc1onc(-c2ccccc2Cl)c1C(O)c1ccc(F)cc1` (stereo not drawn): the kinetic solubility was 0.0466 mg/mL (≈ 147 µM).
As for `COC(=O)CC(c1ccc(F)cc1)n1c(C)ccc1C` (stereo not drawn), the figure is 0.0157 mg/mL (≈ 57 µM).
As to `Cc1cc(Cc2ccc([N+](=O)[O-])cc2)c(C)cn1`, the kinetic solubility was over 0.0363 mg/mL.
As for `COc1cccc(N2CCN(CC(=O)NC(C)c3ccccc3)CC2)c1` (stereo not drawn), the figure is 0.045 mg/mL (≈ 127 µM); as for `O=C(CSc1n[nH]c(-c2ccc(Br)cc2)n1)N1CCOCC1`, over 0.0575 mg/mL.
`O=C(O)C1Nc2ccc(Br)cc2C2C=CCC12` (stereo not drawn): the solubility (kinetic) came to 0.0436 mg/mL (≈ 148 µM).
As for `Cc1ccsc1-c1cc(C(=O)O)c2c(ccc3ccccc32)n1`, the figure is over 0.0479 mg/mL.
As for `CCOc1ccccc1C(=O)NCC(=O)OCC(=O)c1c(N)n(C)c(=O)n(C)c1=O`, the figure is 0.0041 mg/mL (≈ 9.8 µM); as for `Brc1ccc(-c2nc(-c3ccncc3)no2)cc1`, under 0.0002 mg/mL; as for `CN1C[C@@H]2C[C@@H](c3cccn3-c3nccs3)N3CCC[C@@]23C1=O`, 0.0472 mg/mL (≈ 144 µM).
In the case of `CCN1CCN(c2ccc(S(=O)(=O)N3CCOCC3)cc2N)CC1` it was over 0.0532 mg/mL; in that of `NC(=O)C1CCN(CC(O)CSc2ccccc2)CC1` (stereo not drawn), over 0.0442 mg/mL; in that of `Cc1ccc(C)n1-c1ccc(C(=O)NCc2ccncc2)cc1`, 0.0383 mg/mL (≈ 125 µM).
For `COc1cc(/C=C2\SC(=O)NC2=O)ccc1OCC(=O)N1CCOCC1`, the kinetic solubility is over 0.0568 mg/mL.
As for `O=C(Nc1cccc(O)c1)c1cccc(S(=O)(=O)Nc2cccc(O)c2)c1`, the figure is over 0.0577 mg/mL.
As for `O=C(COC(=O)c1c[nH]c(=O)[nH]c1=O)Nc1ccccc1F`, the figure is over 0.0461 mg/mL; as for `CC(=O)Nc1ccc(NC(=O)CCSCCc2ccccn2)cc1`, over 0.0515 mg/mL; as for `O=C(Cc1ccccc1Cl)Nc1nc2ccccc2[nH]1`, 0.0026 mg/mL (≈ 9.1 µM).
In the case of `Cc1[nH]c2ccccc2c1CN1CCN(c2ccccn2)CC1` it was 0.0444 mg/mL (≈ 145 µM); in that of `COc1ccc(Cl)cc1C(=O)Nc1ccc(NC(=O)C(C)C)cc1`, 0.0005 mg/mL (≈ 1.44 µM).
The molecule `Cc1cccc(Nc2nc(-c3ccc(O)c(O)c3)cs2)n1` came in with a kinetic solubility of 0.0045 mg/mL (≈ 15 µM). Compared with the last molecule, the solubility kinetic is about 9-fold higher.
On to `COc1ccc(C(=O)Nc2ccc3c(c2)OCCO3)cc1[N+](=O)[O-]`, for which the kinetic solubility is under 0.0004 mg/mL.
In the case of `Cc1c(O)nc2ccccn2c1=O` it was over 0.0264 mg/mL.
